Source: ChEMBL document CHEMBL1129214, “Synthesis and structure-activity relationship of C-3 quaternary ammonium cephalosporins exhibiting anti-MRSA activities” (1997)
Converted amounts (≈) assume the structure as drawn.

Key:
Assay type in all cases: functional
[1] = system: Staphylococcus aureus; assay: In vitro activity against MRSA (A27223; homogeneous strain) by standard broth dilution method
[2] = system: Staphylococcus aureus; assay: In vitro activity against MSSA (A15090) by standard broth dilution method
[3] = system: Staphylococcus aureus; assay: In vitro activity against MSSA (A20241) by standard broth dilution method
[4] = system: Staphylococcus aureus; assay: In vitro activity against MRSA (A27217; heterogeneous strain) by standard broth dilution method
[5] = system: Staphylococcus aureus; assay: In vitro activity against MRSA (A27621; homogeneous strain) by standard broth dilution method
[6] = system: Staphylococcus aureus; assay: In vitro activity against MRSA (A27226; homogeneous strain) by standard broth dilution method
[7] = In vivo inhibitory activity of compound against staphylococcus aureus; […]; details: read-out: PD50
[8] = In vivo inhibitory activity of compound against staphylococcus aureus; details: read-out: PD50
[9] = Staphylococcus aureus, read-out: MIC

SMILES	MIC [1, 9]	MIC [2, 9]	MIC [3, 9]	MIC [4, 9]	MIC [5, 9]	MIC [6, 9]	ED50 [7]	MIC [1]	MIC [2]	ED50 [8]	MIC [3]	MIC [4]	MIC [5]	MIC [6]
O=C(CSc1cc(Cl)ccc1Cl)N[C@@H]1C(=O)N2C(C(=O)[O-])=C(C[n+]3cccc4c3CCCC4)CS[C@H]12	2 µg/mL (≈ 3.54 µM)	0.5 µg/mL (≈ 0.886 µM)	0.5 µg/mL (≈ 0.886 µM)	1 µg/mL (≈ 1.77 µM)	2 µg/mL (≈ 3.54 µM)	1 µg/mL (≈ 1.77 µM)								
NCC(=O)NC1C[N+]2(CC3=C(C(=O)[O-])N4C(=O)[C@@H](NC(=O)CSc5cc(Cl)ccc5Cl)[C@H]4SC3)CCC1CC2 (stereo partly drawn)	4 µg/mL (≈ 6.51 µM)	0.5 µg/mL (≈ 0.814 µM)	0.5 µg/mL (≈ 0.814 µM)	4 µg/mL (≈ 6.51 µM)	4 µg/mL (≈ 6.51 µM)	2 µg/mL (≈ 3.25 µM)								
NC(=O)COc1cccc2c[n+](CC3=C(C(=O)[O-])N4C(=O)[C@@H](NC(=O)CSc5cc(Cl)ccc5Cl)[C@H]4SC3)ccc12	2 µg/mL (≈ 3.16 µM)	1 µg/mL (≈ 1.58 µM)	1 µg/mL (≈ 1.58 µM)	2 µg/mL (≈ 3.16 µM)	2 µg/mL (≈ 3.16 µM)	2 µg/mL (≈ 3.16 µM)								
O=C(CSc1cc(Cl)ccc1Cl)N[C@@H]1C(=O)N2C(C(=O)[O-])=C(C[N+]34CCC(CC3)CC4)CS[C@H]12	2 µg/mL (≈ 3.69 µM)	1 µg/mL (≈ 1.84 µM)	1 µg/mL (≈ 1.84 µM)	2 µg/mL (≈ 3.69 µM)	4 µg/mL (≈ 7.37 µM)	4 µg/mL (≈ 7.37 µM)								
NC(=O)c1ccc2n(cc[n+]2CC2=C(C(=O)[O-])N3C(=O)[C@@H](NC(=O)CSc4cc(Cl)ccc4Cl)[C@H]3SC2)c1	2 µg/mL (≈ 3.38 µM)	0.5 µg/mL (≈ 0.844 µM)	1 µg/mL (≈ 1.69 µM)	2 µg/mL (≈ 3.38 µM)	2 µg/mL (≈ 3.38 µM)	2 µg/mL (≈ 3.38 µM)								
O=C(CSc1cc(Cl)ccc1Cl)N[C@@H]1C(=O)N2C(C(=O)[O-])=C(C[n+]3ccn4ccccc43)CS[C@H]12	4 µg/mL (≈ 7.28 µM)	0.25 µg/mL (≈ 0.455 µM)	0.5 µg/mL (≈ 0.91 µM)	2 µg/mL (≈ 3.64 µM)	2 µg/mL (≈ 3.64 µM)	1 µg/mL (≈ 1.82 µM)								
O=C(CSc1cc(Cl)ccc1Cl)N[C@@H]1C(=O)N2C(C(=O)[O-])=C(C[n+]3cccc4cc[nH]c43)CS[C@H]12	2 µg/mL (≈ 3.64 µM)	1 µg/mL (≈ 1.82 µM)	1 µg/mL (≈ 1.82 µM)	1 µg/mL (≈ 1.82 µM)	2 µg/mL (≈ 3.64 µM)	2 µg/mL (≈ 3.64 µM)								
O=C(C[N+]12CCN(CC1)CC2)N[C@@H]1C(=O)N2C(C(=O)[O-])=C(CSc3cc(Cl)ccc3Cl)CS[C@H]12	128 µg/mL (≈ 236 µM)	4 µg/mL (≈ 7.36 µM)	4 µg/mL (≈ 7.36 µM)	128 µg/mL (≈ 236 µM)	128 µg/mL (≈ 236 µM)	128 µg/mL (≈ 236 µM)								
O=C(CSc1cc(Cl)ccc1Cl)N[C@@H]1C(=O)N2C(C(=O)[O-])=C(C[N+]34CCN(CC3)CC4)CS[C@H]12	4 µg/mL (≈ 7.36 µM)	0.25 µg/mL (≈ 0.46 µM)	0.5 µg/mL (≈ 0.92 µM)	2 µg/mL (≈ 3.68 µM)	4 µg/mL (≈ 7.36 µM)	4 µg/mL (≈ 7.36 µM)	0.8 mg/kg							
O=C(CSc1cc(Cl)ccc1Cl)N[C@@H]1C(=O)N2C(C(=O)[O-])=C(C[n+]3cccc4[nH]cnc43)CS[C@H]12	2 µg/mL (≈ 3.63 µM)	0.125 µg/mL (≈ 0.227 µM)	0.125 µg/mL (≈ 0.227 µM)	1 µg/mL (≈ 1.82 µM)	2 µg/mL (≈ 3.63 µM)	1 µg/mL (≈ 1.82 µM)								
O=C(CSc1cc(Cl)ccc1Cl)N[C@@H]1C(=O)N2C(C(=O)[O-])=C(C[N+]34CCC(CC3)C(O)C4)CS[C@H]12 (stereo partly drawn)	1 µg/mL (≈ 1.79 µM)	0.25 µg/mL (≈ 0.448 µM)	0.25 µg/mL (≈ 0.448 µM)	1 µg/mL (≈ 1.79 µM)	1 µg/mL (≈ 1.79 µM)	1 µg/mL (≈ 1.79 µM)								
O=C(CSc1cc(Cl)ccc1Cl)N[C@@H]1C(=O)N2C(C(=O)[O-])=C(C[N+]34CN5CN(CN(C5)C3)C4)CS[C@H]12	8 µg/mL (≈ 14 µM)	0.125 µg/mL (≈ 0.219 µM)	0.125 µg/mL (≈ 0.219 µM)	4 µg/mL (≈ 7 µM)	8 µg/mL (≈ 14 µM)	8 µg/mL (≈ 14 µM)								
O=C(CSc1cc(Cl)ccc1Cl)N[C@@H]1C(=O)N2C(C(=O)[O-])=C(C[n+]3ccc4c(O)cccc4c3)CS[C@H]12	1 µg/mL (≈ 1.73 µM)	1 µg/mL (≈ 1.73 µM)	1 µg/mL (≈ 1.73 µM)	1 µg/mL (≈ 1.73 µM)	1 µg/mL (≈ 1.73 µM)	1 µg/mL (≈ 1.73 µM)								
O=C(CSc1cc(Cl)ccc1Cl)N[C@@H]1C(=O)N2C(C(=O)[O-])=C(C[n+]3ccc4ccccc4c3)CS[C@H]12	2 µg/mL (≈ 3.57 µM)	0.5 µg/mL (≈ 0.892 µM)	0.5 µg/mL (≈ 0.892 µM)	2 µg/mL (≈ 3.57 µM)	2 µg/mL (≈ 3.57 µM)	2 µg/mL (≈ 3.57 µM)								
C[N+]1(CC2=C(C(=O)[O-])N3C(=O)[C@@H](NC(=O)CSc4cc(Cl)ccc4Cl)[C@H]3SC2)C2CCCC1CC2 (stereo partly drawn)	2 µg/mL (≈ 3.59 µM)	0.25 µg/mL (≈ 0.449 µM)	0.25 µg/mL (≈ 0.449 µM)	2 µg/mL (≈ 3.59 µM)	2 µg/mL (≈ 3.59 µM)	2 µg/mL (≈ 3.59 µM)								
O=C(CSc1cc(Cl)ccc1Cl)N[C@@H]1C(=O)N2C(C(=O)[O-])=C(C[n+]3ccc4c(c3)CCCC4)CS[C@H]12	4 µg/mL (≈ 7.09 µM)	0.5 µg/mL (≈ 0.886 µM)	0.5 µg/mL (≈ 0.886 µM)	2 µg/mL (≈ 3.54 µM)	4 µg/mL (≈ 7.09 µM)	2 µg/mL (≈ 3.54 µM)								
C[N+]1(CC2=C(C(=O)[O-])N3C(=O)[C@@H](NC(=O)CSc4cc(Cl)ccc4Cl)[C@H]3SC2)C2CCC1CC(=O)C2 (stereo partly drawn)	4 µg/mL (≈ 7.01 µM)	0.5 µg/mL (≈ 0.876 µM)	0.5 µg/mL (≈ 0.876 µM)	2 µg/mL (≈ 3.51 µM)	4 µg/mL (≈ 7.01 µM)	4 µg/mL (≈ 7.01 µM)								
NCCC(=O)NC1C[N+]2(CC3=C(C(=O)[O-])N4C(=O)[C@@H](NC(=O)CSc5cc(Cl)ccc5Cl)[C@H]4SC3)CCC1CC2 (stereo partly drawn)	4 µg/mL (≈ 6.36 µM)	1 µg/mL (≈ 1.59 µM)	1 µg/mL (≈ 1.59 µM)	2 µg/mL (≈ 3.18 µM)	4 µg/mL (≈ 6.36 µM)	4 µg/mL (≈ 6.36 µM)								
C[N+]1(CC2=C(C(=O)[O-])N3C(=O)[C@@H](NC(=O)CSc4cc(Cl)ccc4Cl)[C@H]3SC2)[C@@H]2CC[C@H]1C[C@@H](O)C2 (stereo in doubt; 6r)	2 µg/mL (≈ 3.49 µM)	0.25 µg/mL (≈ 0.437 µM)	0.25 µg/mL (≈ 0.437 µM)	1 µg/mL (≈ 1.75 µM)	2 µg/mL (≈ 3.49 µM)	2 µg/mL (≈ 3.49 µM)	0.8 mg/kg							
C[N+]1(CC2=C(C(=O)[O-])N3C(=O)[C@@H](NC(=O)CSc4cc(Cl)ccc4Cl)[C@H]3SC2)[C@@H]2CC[C@H]1C[C@@H](O)C2 (stereo in doubt; 6s)								4 µg/mL (≈ 6.99 µM)	0.125 µg/mL (≈ 0.218 µM)	9.5 mg/kg	0.125 µg/mL (≈ 0.218 µM)	1 µg/mL (≈ 1.75 µM)	2 µg/mL (≈ 3.49 µM)	4 µg/mL (≈ 6.99 µM)
